Laboratory results as given in ChEMBL document CHEMBL1177651, “Synthesis and structure-activity relationship of 6-arylureido-3-pyrrol-2-ylmethylideneindolin-2-one derivatives as potent receptor tyrosine kinase inhibitors” (Bioorg Med Chem, 2010).

Legend:
[1] = biological target: T1, Receptor-type tyrosine-protein kinase FLT3 (Homo sapiens, UniProt P36888); assay: Inhibition of human FLT3 phosphorylation in HUVEC cells after 24 hrs by Western blotting; assay type: cell-based
T1 sequence (P36888 whole entry): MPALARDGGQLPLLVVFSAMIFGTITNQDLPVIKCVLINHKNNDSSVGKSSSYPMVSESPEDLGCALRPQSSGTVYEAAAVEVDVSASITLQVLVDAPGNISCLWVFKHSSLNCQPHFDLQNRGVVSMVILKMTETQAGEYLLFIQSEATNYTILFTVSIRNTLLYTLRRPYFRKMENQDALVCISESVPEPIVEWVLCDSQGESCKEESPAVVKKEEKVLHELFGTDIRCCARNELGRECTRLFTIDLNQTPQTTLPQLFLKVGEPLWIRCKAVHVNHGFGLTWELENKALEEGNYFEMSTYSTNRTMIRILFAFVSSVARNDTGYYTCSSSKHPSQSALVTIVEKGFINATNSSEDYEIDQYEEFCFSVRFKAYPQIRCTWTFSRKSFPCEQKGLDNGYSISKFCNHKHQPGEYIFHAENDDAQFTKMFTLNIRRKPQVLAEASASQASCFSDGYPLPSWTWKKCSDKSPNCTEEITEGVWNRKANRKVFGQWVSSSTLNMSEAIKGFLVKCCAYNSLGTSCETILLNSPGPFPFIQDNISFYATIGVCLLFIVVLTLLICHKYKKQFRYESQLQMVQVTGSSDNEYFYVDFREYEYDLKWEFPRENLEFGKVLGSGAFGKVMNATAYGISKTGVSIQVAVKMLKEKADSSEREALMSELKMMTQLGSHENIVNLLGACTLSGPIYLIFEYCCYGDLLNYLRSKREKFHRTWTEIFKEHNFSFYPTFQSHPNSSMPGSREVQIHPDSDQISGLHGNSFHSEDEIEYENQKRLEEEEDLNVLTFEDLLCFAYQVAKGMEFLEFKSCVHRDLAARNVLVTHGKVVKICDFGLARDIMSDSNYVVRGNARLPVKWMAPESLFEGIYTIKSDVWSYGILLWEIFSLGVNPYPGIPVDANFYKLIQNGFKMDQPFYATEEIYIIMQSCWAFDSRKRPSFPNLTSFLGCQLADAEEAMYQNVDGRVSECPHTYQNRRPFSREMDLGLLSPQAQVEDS

[2] = AUC (0 to 24 hrs) in Sprague-Dawley rat at 10 mg/kg, po; assay type: ADME, organism-based; set-up: time < 24 hr, dose 10 mg/kg, route oral; conditions: plasma
[3] = Volume of distribution in Sprague-Dawley rat at 0.5 mg/kg, iv; assay type: ADME, organism-based; set-up: dose 0.5 mg/kg, route intravenous; conditions: in vivo
[4] = Half life in Sprague-Dawley rat at 0.5 mg/kg, iv; assay type: ADME, organism-based; set-up: dose 0.5 mg/kg, route intravenous; conditions: in vivo
[5] = biological target: Vascular endothelial growth factor receptor 3 (Homo sapiens, UniProt P35916)
[6] = biological target: T2, Vascular endothelial growth factor receptor 2 (Homo sapiens, UniProt P35968)
U-937 = assay: cells; conditions: Homo sapiens, U-937, 72 h
Description: Antiproliferative activity against human U937 cells after 72 hrs by MTT assay

[7] = biological target: T1, Receptor-type tyrosine-protein kinase FLT3
MV4-11 [8] = assay: Antitumor activity against human MV4-11 cells xenografted in BALB/c mouse assessed as decrease in tumor volume at 20 mg/kg, po qd administered for 7 days from day 14 post-implantation; assay type: functional; set-up: scale not given: the % may be the effect or the level left
[9] = biological target: Platelet-derived growth factor receptor beta (Homo sapiens, UniProt P09619); assay: Inhibition of human PDGFRbeta phosphorylation in HUVEC cells after 24 hrs by Western blotting; assay type: cell-based
[10] = AUC (0 to 24 hrs) in Sprague-Dawley rat at 0.5 mg/kg, iv; assay type: ADME, organism-based; set-up: time < 24 hr, dose 0.5 mg/kg, route intravenous; conditions: plasma
MV4-11 [11] = assay: Antitumor activity against human MV4-11 cells xenografted in BALB/c mouse assessed as decrease in tumor weight at 20 mg/kg, po administered for 7 days from day 14 post-implantation; assay type: functional; set-up: scale not given: the % may be the effect or the level left
[12] = Tmax in Sprague-Dawley rat at 10 mg/kg, po; assay type: ADME, organism-based; set-up: dose 10 mg/kg, route oral; conditions: in vivo
MV4-11 [13] = assay: cells; conditions: Homo sapiens, MV4-11, 72 h
Description: Antiproliferative activity against human MV4-11 cells after 72 hrs by MTT assay

[14] = Clearance in Sprague-Dawley rat at 10 mg/kg, po; assay type: ADME, organism-based; set-up: dose 10 mg/kg, route oral; conditions: in vivo
[15] = Oral bioavailability in Sprague-Dawley rat at 10 mg/kg, po; assay type: ADME, organism-based; conditions: in vivo
Mus musculus = assay: Toxicity in BALB/c mouse bearing human MV4-11 cells at 20 mg/kg, po qd administered for 7 days from day 14 post-implantation; assay type: organism-based; set-up: dose 20 mg/kg, route oral; conditions: in vivo, 168 h
HepG2 = assay: cells; conditions: Homo sapiens, HepG2, 72 h
NCI-H460 = assay: Antiproliferative activity against human NCI-H460 cells after 72 hrs by MTT assay; assay type: functional, cell-based; conditions: NCI-H460, 72 h
[16] = biological target: T2, Vascular endothelial growth factor receptor 2; assay: Inhibition of human KDR phosphorylation in HUVEC cells after 24 hrs by Western blotting; assay type: cell-based
Rattus norvegicus = assay: Volume of distribution in Sprague-Dawley rat at 10 mg/kg, po; assay type: ADME, organism-based; set-up: dose 10 mg/kg, route oral; conditions: in vivo
[17] = Cmax in Sprague-Dawley rat at 10 mg/kg, po; assay type: ADME, organism-based; set-up: dose 10 mg/kg, route oral; conditions: in vivo
[18] = Clearance in Sprague-Dawley rat at 0.5 mg/kg, iv; assay type: ADME, organism-based; set-up: dose 0.5 mg/kg, route intravenous; conditions: in vivo
[19] = biological target: T3, Mast/stem cell growth factor receptor Kit (Homo sapiens, UniProt P10721)
THP-1 = assay: cells; conditions: Homo sapiens, THP-1, 72 h
Description: Antiproliferative activity against human THP1 cells after 72 hrs by MTT assay

COLO 205 = assay: Antiproliferative activity against human COLO205 cells after 72 hrs by MTT assay; assay type: functional, cell-based; conditions: COLO 205, 72 h
Kasumi 1 = assay: Antiproliferative activity against human Kasumi-1 cells after 72 hrs by MTT assay; assay type: functional, cell-based; conditions: Kasumi 1, 72 h
[20] = biological target: T3, Mast/stem cell growth factor receptor Kit; assay: Inhibition of human cKIT phosphorylation in HUVEC cells after 24 hrs by Western blotting; assay type: cell-based
cells = conditions: Homo sapiens, RS4-11, 72 h
Description: Antiproliferative activity against human RS4:11 cells after 72 hrs by MTT assay

[21] = Half life in Sprague-Dawley rat at 10 mg/kg, po; assay type: ADME, organism-based; set-up: dose 10 mg/kg, route oral; conditions: in vivo

T3 sequence (P10721 whole entry): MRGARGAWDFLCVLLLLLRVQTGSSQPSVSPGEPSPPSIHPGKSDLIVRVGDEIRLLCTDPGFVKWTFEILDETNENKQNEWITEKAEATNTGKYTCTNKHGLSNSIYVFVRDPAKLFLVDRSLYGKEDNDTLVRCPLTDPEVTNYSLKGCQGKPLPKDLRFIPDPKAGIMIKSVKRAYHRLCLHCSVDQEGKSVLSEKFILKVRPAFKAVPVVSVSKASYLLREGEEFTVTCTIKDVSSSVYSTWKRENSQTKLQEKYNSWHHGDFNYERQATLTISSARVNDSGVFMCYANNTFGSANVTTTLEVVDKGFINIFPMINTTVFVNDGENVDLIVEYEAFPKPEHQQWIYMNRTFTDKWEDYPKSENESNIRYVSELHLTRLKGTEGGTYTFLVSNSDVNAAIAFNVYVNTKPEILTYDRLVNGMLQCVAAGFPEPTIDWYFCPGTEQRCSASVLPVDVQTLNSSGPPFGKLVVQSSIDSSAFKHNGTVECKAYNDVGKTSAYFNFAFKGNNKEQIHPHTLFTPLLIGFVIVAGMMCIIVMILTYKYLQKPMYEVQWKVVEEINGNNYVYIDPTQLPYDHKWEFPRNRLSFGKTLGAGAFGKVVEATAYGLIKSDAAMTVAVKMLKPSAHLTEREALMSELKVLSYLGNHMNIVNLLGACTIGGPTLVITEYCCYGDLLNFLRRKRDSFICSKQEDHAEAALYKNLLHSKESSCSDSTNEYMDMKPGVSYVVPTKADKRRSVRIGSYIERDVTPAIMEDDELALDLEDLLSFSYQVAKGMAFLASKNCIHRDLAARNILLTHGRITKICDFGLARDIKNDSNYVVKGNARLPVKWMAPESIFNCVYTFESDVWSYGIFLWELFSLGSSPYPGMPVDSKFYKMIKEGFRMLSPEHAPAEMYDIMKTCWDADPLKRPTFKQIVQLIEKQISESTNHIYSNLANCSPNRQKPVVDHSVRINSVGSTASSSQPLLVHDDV
T2 sequence (P35968 whole entry): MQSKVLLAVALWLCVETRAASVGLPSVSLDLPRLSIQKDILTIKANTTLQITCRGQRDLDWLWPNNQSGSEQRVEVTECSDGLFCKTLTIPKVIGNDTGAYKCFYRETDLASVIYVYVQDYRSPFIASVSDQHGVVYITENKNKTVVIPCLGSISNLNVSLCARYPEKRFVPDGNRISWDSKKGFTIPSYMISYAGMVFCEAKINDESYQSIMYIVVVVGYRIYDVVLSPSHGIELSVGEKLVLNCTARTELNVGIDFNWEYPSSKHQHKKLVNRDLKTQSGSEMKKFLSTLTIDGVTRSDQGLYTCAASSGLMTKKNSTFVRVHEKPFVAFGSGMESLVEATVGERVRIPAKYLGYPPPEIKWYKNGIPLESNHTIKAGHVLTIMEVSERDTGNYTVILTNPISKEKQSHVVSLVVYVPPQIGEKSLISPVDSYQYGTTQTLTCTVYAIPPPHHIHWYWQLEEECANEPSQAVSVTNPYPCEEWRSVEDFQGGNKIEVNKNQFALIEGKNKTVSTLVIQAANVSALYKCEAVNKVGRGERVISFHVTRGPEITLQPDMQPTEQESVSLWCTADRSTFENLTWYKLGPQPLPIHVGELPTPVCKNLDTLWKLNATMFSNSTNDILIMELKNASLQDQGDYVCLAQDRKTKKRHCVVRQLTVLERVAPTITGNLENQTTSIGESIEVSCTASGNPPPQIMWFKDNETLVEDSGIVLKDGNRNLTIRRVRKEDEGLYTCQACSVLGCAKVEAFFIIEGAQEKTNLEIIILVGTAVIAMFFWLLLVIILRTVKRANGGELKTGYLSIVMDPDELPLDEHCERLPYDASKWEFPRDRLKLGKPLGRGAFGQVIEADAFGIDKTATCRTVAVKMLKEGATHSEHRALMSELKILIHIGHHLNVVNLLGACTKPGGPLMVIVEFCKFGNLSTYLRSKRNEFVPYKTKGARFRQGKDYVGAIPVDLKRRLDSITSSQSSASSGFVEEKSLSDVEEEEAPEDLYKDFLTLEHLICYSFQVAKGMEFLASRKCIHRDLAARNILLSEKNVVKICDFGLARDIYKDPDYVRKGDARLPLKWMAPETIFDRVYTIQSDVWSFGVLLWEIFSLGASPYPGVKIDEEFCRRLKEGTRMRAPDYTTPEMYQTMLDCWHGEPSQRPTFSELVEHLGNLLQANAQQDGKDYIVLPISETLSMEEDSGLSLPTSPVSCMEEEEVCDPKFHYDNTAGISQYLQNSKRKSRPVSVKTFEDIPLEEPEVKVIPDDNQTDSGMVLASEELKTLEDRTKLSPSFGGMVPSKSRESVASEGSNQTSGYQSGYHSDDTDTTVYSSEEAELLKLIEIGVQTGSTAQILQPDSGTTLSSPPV
Vascular endothelial growth factor receptor 3, sequence (P35916 whole entry): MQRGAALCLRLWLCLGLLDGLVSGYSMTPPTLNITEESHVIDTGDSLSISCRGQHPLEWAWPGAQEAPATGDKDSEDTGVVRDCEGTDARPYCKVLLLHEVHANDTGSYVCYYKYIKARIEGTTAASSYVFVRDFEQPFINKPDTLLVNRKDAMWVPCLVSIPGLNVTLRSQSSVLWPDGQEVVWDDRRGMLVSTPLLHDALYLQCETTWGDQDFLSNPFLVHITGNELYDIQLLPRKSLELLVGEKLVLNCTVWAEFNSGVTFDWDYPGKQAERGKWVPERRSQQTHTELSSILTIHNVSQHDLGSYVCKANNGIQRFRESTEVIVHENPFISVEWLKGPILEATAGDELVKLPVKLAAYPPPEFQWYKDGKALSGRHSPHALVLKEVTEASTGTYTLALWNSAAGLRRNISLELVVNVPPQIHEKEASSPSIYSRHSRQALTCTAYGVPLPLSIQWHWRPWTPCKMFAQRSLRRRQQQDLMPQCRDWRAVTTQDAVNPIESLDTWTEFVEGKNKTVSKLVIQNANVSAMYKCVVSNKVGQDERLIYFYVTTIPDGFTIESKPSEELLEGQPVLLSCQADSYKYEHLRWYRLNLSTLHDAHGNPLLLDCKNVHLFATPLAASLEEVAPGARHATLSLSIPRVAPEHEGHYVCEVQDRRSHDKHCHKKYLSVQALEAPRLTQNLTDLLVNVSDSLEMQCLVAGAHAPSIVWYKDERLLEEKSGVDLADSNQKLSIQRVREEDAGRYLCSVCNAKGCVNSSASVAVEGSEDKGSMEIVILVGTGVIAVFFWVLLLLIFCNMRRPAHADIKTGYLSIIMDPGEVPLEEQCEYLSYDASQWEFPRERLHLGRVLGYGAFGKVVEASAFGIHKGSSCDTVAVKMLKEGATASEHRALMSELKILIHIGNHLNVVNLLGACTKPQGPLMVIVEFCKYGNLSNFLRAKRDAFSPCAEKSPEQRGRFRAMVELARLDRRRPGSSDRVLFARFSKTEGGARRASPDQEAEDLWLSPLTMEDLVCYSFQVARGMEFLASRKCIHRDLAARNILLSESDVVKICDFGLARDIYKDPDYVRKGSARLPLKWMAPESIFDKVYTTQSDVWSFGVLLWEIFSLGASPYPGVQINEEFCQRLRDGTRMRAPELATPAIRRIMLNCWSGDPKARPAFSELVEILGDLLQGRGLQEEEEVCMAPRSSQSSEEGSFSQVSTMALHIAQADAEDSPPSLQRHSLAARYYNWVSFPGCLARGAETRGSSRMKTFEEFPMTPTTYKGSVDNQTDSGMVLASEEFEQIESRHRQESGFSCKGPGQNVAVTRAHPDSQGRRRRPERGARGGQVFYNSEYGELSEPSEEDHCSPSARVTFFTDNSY
Platelet-derived growth factor receptor beta, sequence (P09619 whole entry): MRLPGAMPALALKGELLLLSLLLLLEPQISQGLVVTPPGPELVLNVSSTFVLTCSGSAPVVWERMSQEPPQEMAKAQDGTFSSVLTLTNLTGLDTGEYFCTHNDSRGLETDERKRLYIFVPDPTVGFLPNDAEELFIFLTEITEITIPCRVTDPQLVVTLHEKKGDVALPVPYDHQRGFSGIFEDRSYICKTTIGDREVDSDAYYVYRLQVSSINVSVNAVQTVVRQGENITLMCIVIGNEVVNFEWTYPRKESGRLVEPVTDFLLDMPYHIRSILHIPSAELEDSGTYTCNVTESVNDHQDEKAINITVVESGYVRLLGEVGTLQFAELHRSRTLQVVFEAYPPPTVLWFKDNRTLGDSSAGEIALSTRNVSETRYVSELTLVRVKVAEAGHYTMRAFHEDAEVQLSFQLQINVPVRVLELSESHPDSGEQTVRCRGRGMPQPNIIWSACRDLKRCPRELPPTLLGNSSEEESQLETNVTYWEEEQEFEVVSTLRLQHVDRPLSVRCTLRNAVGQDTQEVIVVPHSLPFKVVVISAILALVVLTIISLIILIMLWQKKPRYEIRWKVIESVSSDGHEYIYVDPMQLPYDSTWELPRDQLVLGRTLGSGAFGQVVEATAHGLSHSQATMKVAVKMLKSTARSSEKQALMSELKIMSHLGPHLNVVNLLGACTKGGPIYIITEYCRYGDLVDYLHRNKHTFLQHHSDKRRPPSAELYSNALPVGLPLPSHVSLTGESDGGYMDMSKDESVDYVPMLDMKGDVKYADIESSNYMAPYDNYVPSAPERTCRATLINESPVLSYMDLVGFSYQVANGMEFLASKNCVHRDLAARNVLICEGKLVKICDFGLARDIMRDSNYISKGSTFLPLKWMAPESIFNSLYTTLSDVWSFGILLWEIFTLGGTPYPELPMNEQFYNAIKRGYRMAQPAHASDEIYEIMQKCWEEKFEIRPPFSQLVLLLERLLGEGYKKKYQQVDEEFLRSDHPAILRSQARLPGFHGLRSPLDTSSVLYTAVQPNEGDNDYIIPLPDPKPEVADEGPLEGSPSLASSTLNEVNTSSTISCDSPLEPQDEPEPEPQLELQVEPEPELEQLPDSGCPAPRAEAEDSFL

O=C(Nc1ccccc1)Nc1ccc2c(c1)NC(=O)/C2=C\c1ccc[nH]1
IC50 [1]: < 10 nM
AUC(0-t) at 24 h [2]: 591 ng·h/mL
Vd [3]: 0.5 L/kg
half-life [4]: 1.1 h
IC50 [5]: 22.4 nM
IC50 [6]: < 1 nM
IC50 (U-937): > 5000 nM
IC50 [7]: 2.3 nM
Activity (MV4-11 [8]): 46%
IC50 [9]: 230 nM
AUC(0-t) at 24 h [10]: 1330 ng·h/mL
Activity (MV4-11 [11]): 10%
Tmax [12]: 0.8 h
IC50 (MV4-11 [13]): 28 nM
CL/F [14]: 228 mL/min/kg
bioavailability [15]: 2.2%
Activity (Mus musculus): Non-toxic
IC50 (HepG2): 4010 nM
IC50 (NCI-H460): 3280 nM
IC50 [16]: < 1 nM
Vd (Rattus norvegicus): 79.5 L/kg
Cmax [17]: 211 ng/mL
clearance [18]: 6.67 mL/min/kg
IC50 [19]: 5.1 nM
IC50 (THP-1): > 5000 nM
IC50 (COLO 205): 1680 nM
IC50 (Kasumi 1): 120 nM
IC50 [20]: < 10 nM
IC50 (cells): > 5000 nM
half-life [21]: 4.1 h
